Like-named read-outs stand apart in the source and are kept apart here.
Tests used:
E-Coli [1] = assay: E-Coli testing at immersion chiller, plant test at Dallas, Tex.
APC = APC on carcass after IOBW, Natchitoches, La.; details: standard nozzles, 13 seconds of wash time
Coliform = Coliform on carcass after IOBW, Natchitoches, La.; details: standard nozzles, 13 seconds of wash time
E-Coli [2] = assay: E-Coli testing at chiller system, Natchitoches, La.
[3] = cited from earlier work
microorganisms = details: versus OCl-; cited from earlier work
E-Coli [4] = assay: E-Coli on carcass after IOBW, Natchitoches, La.; details: standard nozzles, 13 seconds of wash time
Experimental: More tests are being conducted at a facility in Natchitoches, La. The project began by adding hypochlorous acid to the IOBW on-line. Tests were performed on the carcass before and after the IOBW. APC, Coliform and E-Coli test were run on the carcass. Average APC of the carcass entering the IOBW was 90,559 cfu/ml, Coliform of 2,103 cfu/ml and E-Coli of 1,429 cfu/ml. After adding hypochlorous acid to the existing IOBW, using standard nozzles, a major reduction in the numbers was found. The average APC was 12,792, Coliform 664 cfu/ml and E. coli 383 cfu/ml. This was only with 13 seconds of wash time.

pathogens = assay: Initial one-control-point testing at the immersion chillers, chiller water samples
From the text: In a preferred embodiment, a hypochlorous acid stream is used in more than one discrete location along a poultry processing line, although preliminary investigations for pathogens began as a one-control point approach in the process at the immersion chillers.
Samples of chiller water determined that it was sterilized with hypochlorous acid. It appeared that the disinfecting capabilities were maximized at the chiller.

Salmonella = Salmonella in chiller water, plant test at Springdale, Ark.
Listeria monocytogenes = details: 8% TSP, 10 minutes, room temperature, colony grown on a surface with biofilm; cited from earlier work
[5] = December, 121 samples so far, chiller plus pick/kill room system
[6] = July, 254 samples, system on chiller
[7] = November, 251 samples, chiller plus pick/kill room system

OCl [hypochlorous acid]
E-Coli detection rate (E-Coli [1]; April): 14%
samples below 100 cfu/ml (E-Coli [1]; April): 99%
samples with E-Coli detected (E-Coli [1]; April, of 264 samples): 37 samples
E-Coli detection rate (E-Coli [1]; March): 28%
samples below 100 cfu/ml (E-Coli [1]; March): 83%
samples with E-Coli detected (E-Coli [1]; March, of 264 samples): 76 samples
E-Coli detection rate (E-Coli [1]; May): 8%
samples below 100 cfu/ml (E-Coli [1]; May): 100%
samples with E-Coli detected (E-Coli [1]; May, of 276 samples): 23 samples
average APC (APC): 12,792 cfu/ml
average Coliform (Coliform): 664 cfu/ml
samples over 10 cfu/ml (E-Coli [2]; [5]): 28%
samples over 100 cfu/ml (number) (E-Coli [2]; [5]): two
samples over 10 cfu/ml (E-Coli [2]; [6]): 38%
samples over 100 cfu/ml (E-Coli [2]; [6]): 5%
samples over 10 cfu/ml (E-Coli [2]; [7]): 20%
samples over 100 cfu/ml (number) (E-Coli [2]; [7]): one
Percent HOCl ([3]; pH 5.0, 0 °C): 99.85%
Percent HOCl ([3]; pH 5.0, 5 °C): 99.83%
Percent HOCl ([3]; pH 5.0, 10 °C): 99.80%
Percent HOCl ([3]; pH 5.0, 15 °C): 99.77%
Percent HOCl ([3]; pH 5.0, 20 °C): 99.74%
Percent HOCl ([3]; pH 5.0, 25 °C): 99.71%
Percent HOCl ([3]; pH 5.0, 30 °C): 99.68%
Percent HOCl ([3]; pH 5.5, 0 °C): 99.53%
Percent HOCl ([3]; pH 5.5, 5 °C): 99.75%
Percent HOCl ([3]; pH 5.5, 10 °C): 99.36%
Percent HOCl ([3]; pH 5.5, 15 °C): 99.27%
Percent HOCl ([3]; pH 5.5, 20 °C): 99.18%
Percent HOCl ([3]; pH 5.5, 25 °C): 99.09%
Percent HOCl ([3]; pH 5.5, 30 °C): 99.01%
Percent HOCl ([3]; pH 6.0, 0 °C): 98.53%
Percent HOCl ([3]; pH 6.0, 5 °C): 98.28%
Percent HOCl ([3]; pH 6.0, 10 °C): 98.01%
Percent HOCl ([3]; pH 6.0, 15 °C): 97.73%
Percent HOCl ([3]; pH 6.0, 20 °C): 97.45%
Percent HOCl ([3]; pH 6.0, 25 °C): 97.18%
Percent HOCl ([3]; pH 6.0, 30 °C): 96.92%
Percent HOCl ([3]; pH 7.0, 0 °C): 87.05%
Percent HOCl ([3]; pH 7.0, 5 °C): 85.08%
Percent HOCl ([3]; pH 7.0, 10 °C): 83.11%
Percent HOCl ([3]; pH 7.0, 15 °C): 81.17%
Percent HOCl ([3]; pH 7.0, 20 °C): 79.23%
Percent HOCl ([3]; pH 7.0, 25 °C): 77.53%
Percent HOCl ([3]; pH 7.0, 30 °C): 75.90%
Percent HOCl ([3]; pH 8.0, 0 °C): 40.19%
Percent HOCl ([3]; pH 8.0, 5 °C): 36.32%
Percent HOCl ([3]; pH 8.0, 10 °C): 32.98%
Percent HOCl ([3]; pH 8.0, 15 °C): 30.12%
Percent HOCl ([3]; pH 8.0, 20 °C): 27.62%
Percent HOCl ([3]; pH 8.0, 25 °C): 25.65%
Percent HOCl ([3]; pH 8.0, 30 °C): 23.95%
Percent HOCl ([3]; pH 9.0, 0 °C): 6.30%
Percent HOCl ([3]; pH 9.0, 5 °C): 5.40%
Percent HOCl ([3]; pH 9.0, 10 °C): 4.69%
Percent HOCl ([3]; pH 9.0, 15 °C): 4.13%
Percent HOCl ([3]; pH 9.0, 20 °C): 3.68%
Percent HOCl ([3]; pH 9.0, 25 °C): 3.34%
Percent HOCl ([3]; pH 9.0, 30 °C): 3.05%
Percent HOCl ([3]; pH 10.0, 0 °C): 0.67%
Percent HOCl ([3]; pH 10.0, 5 °C): 0.57%
Percent HOCl ([3]; pH 10.0, 10 °C): 0.49%
Percent HOCl ([3]; pH 10.0, 15 °C): 0.43%
Percent HOCl ([3]; pH 10.0, 20 °C): 0.38%
Percent HOCl ([3]; pH 10.0, 25 °C): 0.34%
Percent HOCl ([3]; pH 10.0, 30 °C): 0.31%
Percent HOCl ([3]; pH 11.0, 0 °C): 0.067%
Percent HOCl ([3]; pH 11.0, 5 °C): 0.057%
Percent HOCl ([3]; pH 11.0, 10 °C): 0.049%
Percent HOCl ([3]; pH 11.0, 15 °C): 0.043%
Percent HOCl ([3]; pH 11.0, 20 °C): 0.038%
Percent HOCl ([3]; pH 11.0, 25 °C): 0.034%
Percent HOCl ([3]; pH 11.0, 30 °C): 0.031%
effectiveness for killing microorganisms relative to OCl- (microorganisms): about 80 times
average E. coli (E-Coli [4]): 383 cfu/ml
state of chiller water samples (pathogens): sterilized
samples returned positive (Salmonella) (Salmonella; of 41 samples over three weeks, 98% hypochlorous acid solution injected into chiller recirculation lines): 2 samples

O=P([O-])([O-])[O-].[Na+].[Na+].[Na+] [TSP, Trisodium phosphate]
reduction of bacterial numbers (Listeria monocytogenes): 1 log10

[Ca+2].[O-]Cl.[O-]Cl [calcium hypochlorite solution, calcium hypochlorite]
reduction in Salmonella (Salmonella): 40%
samples returned with a positive result of Salmonella (Salmonella; of 83 samples, four weeks, injected into chiller recirculation lines without pH control): 16 samples
